13 compounds from patent publication US9187472B2 (AbbVie Inc., priority 2012, dated 2015) can be followed below.

For this experiment, the system named is PC3 cells. Description: NAMPT Cell Proliferation Assay. The class given is cell-based. Particulars: Homo sapiens, PC-3, 120 h, 5 days incubation, cell viability by Cell Titer Glo. An outline of the steps:
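Cell Titer Glo viability after 5-day exposure (37° C, 5% CO2); PC3, 500 cells/well, RPMI + 10% heat-inactivated FBS, overnight attachment before dosing. Dose range 10 μM to 1×10^−5 μM, 10-fold steps. IC50 = sigmoidal fit of % inhibition.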
(In general: ATP-based viability assays read luminescence as a measure of living cells.)
For orientation: IC50 means the concentration at which inhibition is half-maximal. Regarding `O=C(NCc1ccc2ncnn2c1)c1ccc(C2CCN(C(=O)c3ccccn3)CC2)s1` [Example 853, 5-[1-(pyridin-2-ylcarbonyl)piperidin-4-yl]-N-([1,2,4]triazolo[1,5-a]pyridin-6-ylmethyl)thiophene-2-carboxamide], the IC50 worked out at 9.96 nM.

In the case of `O=C(NCc1ccn2ccnc2c1)c1ccc(C2CCN(C(=O)c3cc(C4CC4)no3)CC2)cc1` [Example 1062, 4-{1-[(3-cyclopropyl-1,2-oxazol-5-yl)carbonyl]piperidin-4-yl}-N-(imidazo[1,2-a]pyridin-7-ylmethyl)benzamide], the midpoint of inhibition, the IC50, lay at 17 nM. `O=C(NCc1ccc2ncnn2c1)c1ccc(C2CCN(C(=O)c3ccccc3F)CC2)s1` [Example 831, 5-[1-(2-fluorobenzoyl)piperidin-4-yl]-N-([1,2,4]triazolo[1,5-a]pyridin-6-ylmethyl)thiophene-2-carboxamide] displayed an IC50 of 0.886 nM. Compound `O=C(NCc1ccn2ccnc2c1)Nc1ccc(C2CCN(C(=O)c3ccoc3C(F)(F)F)CC2)cc1` [Example 1153, 1-(imidazo[1,2-a]pyridin-7-ylmethyl)-3-[4-(1-{[2-(trifluoromethyl)furan-3-yl]carbonyl}piperidin-4-yl)phenyl]urea] registered an IC50 of 1.72 nM. As for `O=C(NCc1ccn2ccnc2c1)c1ccc(C2CCN(C(=O)c3scnc3Cl)CC2)cc1` [Example 1102, 4-{1-[(4-chloro-1,3-thiazol-5-yl)carbonyl]piperidin-4-yl}-N-(imidazo[1,2-a]pyridin-7-ylmethyl)benzamide], the figure is 1.77 nM.

The compound `O=C(NCc1ccn2ccnc2c1)Nc1ccc(C2CCN(C(=O)c3cc4ccccn4n3)CC2)cc1` [Example 1143, 1-(imidazo[1,2-a]pyridin-7-ylmethyl)-3-{4-[1-(pyrazolo[1,5-a]pyridin-2-ylcarbonyl)piperidin-4-yl]phenyl}urea] displayed an IC50 of 17.4 nM. In the case of `N#Cc1ccsc1C(=O)N1CCC(c2ccc(C(=O)NCc3ccn4ccnc4c3)cc2)CC1` [Example 1103, 4-{1-[(3-cyanothiophen-2-yl)carbonyl]piperidin-4-yl}-N-(imidazo[1,2-a]pyridin-7-ylmethyl)benzamide] it was 4.24 nM; in that of `CC(C)(O)C(=O)N1CCC(c2ccc(C(=O)NCc3ccc4ncnn4c3)s2)CC1` [Example 850, 5-[1-(2-hydroxy-2-methylpropanoyl)piperidin-4-yl]-N-([1,2,4]triazolo[1,5-a]pyridin-6-ylmethyl)thiophene-2-carboxamide], 54 nM.

Turning to `COc1ncccc1/C=C/C(=O)N1CCC(c2ccc(C(=O)NCc3ccn4ccnc4c3)cc2)CC1` [Example 990, N-(imidazo[1,2-a]pyridin-7-ylmethyl)-4-{1-[(2E)-3-(2-methoxypyridin-3-yl)prop-2-enoyl]piperidin-4-yl}benzamide], half-maximal inhibition (IC50) was put at 17.9 nM. In the case of `O=C(NCc1ccn2ccnc2c1)c1ccc(C2CCN(C(=O)c3ncc(F)cc3F)CC2)cc1` [Example 975, 4-{1-[(3,5-difluoropyridin-2-yl)carbonyl]piperidin-4-yl}-N-(imidazo[1,2-a]pyridin-7-ylmethyl)benzamide] it was 50.3 nM; in that of `CC(C)C(=O)N1CCC(c2ccc(C(=O)NCc3ccc4ncnn4c3)s2)CC1` [Example 842, 5-[1-(2-methylpropanoyl)piperidin-4-yl]-N-([1,2,4]triazolo[1,5-a]pyridin-6-ylmethyl)thiophene-2-carboxamide], 71.4 nM; in that of `CC(C)(C)Cc1nnc(-c2ccc(NC(=O)Cc3ccn4ccnc4c3)cc2)o1` [Example 911, N-{4-[5-(2,2-dimethylpropyl)-1,3,4-oxadiazol-2-yl]phenyl}-2-(imidazo[1,2-a]pyridin-7-yl)acetamide], 42.5 nM. `N#Cc1cc(F)c(C(=O)N2CCC(c3ccc(NC(=O)NCc4ccn5ccnc5c4)cc3)CC2)c(F)c1` [Example 1133, 1-{4-[1-(4-cyano-2,6-difluorobenzoyl)piperidin-4-yl]phenyl}-3-(imidazo[1,2-a]pyridin-7-ylmethyl)urea]: inhibition was half-maximal at 1 nM (IC50).
